Experiments:
Keap1 = Keap1 (Homo sapiens, UniProt Q14145); experiment: fluorescence polarization competition with labeled Nrf2 (ETGE) peptide, dose-response; supported by CETSA in LO2 lysate (ΔTm ca. […] °C); type: binding; settings: read-out: EC50 (the source's name)
GSK3β = target: T1, GSK3β (Homo sapiens, UniProt P49841); experiment: ADP-Glo luminescent kinase assay, dose-response; supported by CETSA in LO2 lysate (ΔTm ca. […] °C); type: biochemical
T1 construct: gene GSK3B
T1 sequence (P49841 whole entry): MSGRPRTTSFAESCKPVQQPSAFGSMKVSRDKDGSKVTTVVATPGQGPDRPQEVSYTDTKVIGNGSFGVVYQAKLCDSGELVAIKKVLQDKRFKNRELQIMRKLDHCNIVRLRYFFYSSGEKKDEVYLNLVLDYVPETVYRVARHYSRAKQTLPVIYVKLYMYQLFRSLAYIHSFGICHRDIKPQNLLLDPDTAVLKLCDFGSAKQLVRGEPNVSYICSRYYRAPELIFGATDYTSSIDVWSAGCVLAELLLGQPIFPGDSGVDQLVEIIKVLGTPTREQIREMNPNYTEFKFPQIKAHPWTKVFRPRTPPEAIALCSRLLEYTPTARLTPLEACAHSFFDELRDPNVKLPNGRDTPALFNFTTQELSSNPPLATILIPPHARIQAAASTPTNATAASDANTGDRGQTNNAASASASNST

Chain of Keap1 (Q14145 whole entry): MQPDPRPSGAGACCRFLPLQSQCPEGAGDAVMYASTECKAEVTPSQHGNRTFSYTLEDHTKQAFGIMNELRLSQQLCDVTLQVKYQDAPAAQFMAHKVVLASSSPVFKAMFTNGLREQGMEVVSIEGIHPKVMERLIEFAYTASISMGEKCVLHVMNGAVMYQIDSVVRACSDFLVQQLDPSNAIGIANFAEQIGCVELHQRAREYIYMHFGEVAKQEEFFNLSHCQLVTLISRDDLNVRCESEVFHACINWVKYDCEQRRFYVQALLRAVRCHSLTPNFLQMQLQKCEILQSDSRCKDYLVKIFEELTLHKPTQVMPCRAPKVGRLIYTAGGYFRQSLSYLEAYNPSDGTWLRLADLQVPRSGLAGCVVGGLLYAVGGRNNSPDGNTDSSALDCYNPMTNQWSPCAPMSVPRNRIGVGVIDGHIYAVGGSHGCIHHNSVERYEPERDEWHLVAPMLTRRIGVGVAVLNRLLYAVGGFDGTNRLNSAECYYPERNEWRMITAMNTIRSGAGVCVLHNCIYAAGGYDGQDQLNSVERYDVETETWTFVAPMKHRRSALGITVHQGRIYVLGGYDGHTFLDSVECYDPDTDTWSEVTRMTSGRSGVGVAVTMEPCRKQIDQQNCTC

SMILES: C=C(CC[C@@H](C(=O)O)[C@H]1CC[C@@]2(C)C3=CC[C@H]4C(C)(C)[C@@H](O)CC[C@]4(C)C3=CC[C@]12C)C(C)C [compound 1, Dehydroeburicoic acid]
- IC50 (Keap1): 14.1 ± 0.1 µM
- EC50 (GSK3β): 8 ± 0.7 µM

Source: publication PMC9866905, “Dehydroeburicoic Acid, a Dual Inhibitor against Oxidative Stress in Alcoholic Liver Disease” (Pharmaceuticals, 2022)
